IC50, EC50 and melting point data for 17 compounds are collected here from US6677450B2, “Topoisomerase inhibitors” (Bristol-Myers Squibb Company, priority 2000, dated 2004).

One data set concerns murine P388 cell line. In words: In vitro cell-based cytotoxicity: proliferation inhibition, XTT tetrazolium assay. As to conditions: P388 cells, 72 h at 37° C., XTT absorbance at 450 nm, read-out: IC50 (drug concentration required to inhibit cell proliferation to 50% of untreated control cells). As to the method:
In Vitro Cell-Based Cytotoxicity Activity
The proliferation inhibition activity against murine P388 cell line was measured as follows. Evaluation of a soluble tetrazolium/formazan assay for cell growth and drug sensitivity in culture, using human and other tumor cell lines, was done according to the procedure described in Cancer Res. 1988, 48, 4827-4833. Cells were plated at 4000 cells/well in 96 well microtiter plates and 24 h later drugs were added and serially diluted. The cells were incubated at 37° C. for 72 h, at which time a tetrazolium dye, XTT, containing phenazine methosulfate was added. A dehydrogenase enzyme in live cells reduced the XTT to a form that absorbs light at 450 nm, which could be quantitated spectrophotometrically. The greater the absorbance the greater the number of live cells. The results are expressed as an IC50, which is the drug concentration required to inhibit cell proliferation (i.e., absorbance at 450 nm) to 50% of that of untreated control cells.

In data set [1] the target is T1, purified human topoisomerase I (Homo sapiens, UniProt P11387).
T1 construct: purchased Topogen
T1 sequence (P11387 1-765): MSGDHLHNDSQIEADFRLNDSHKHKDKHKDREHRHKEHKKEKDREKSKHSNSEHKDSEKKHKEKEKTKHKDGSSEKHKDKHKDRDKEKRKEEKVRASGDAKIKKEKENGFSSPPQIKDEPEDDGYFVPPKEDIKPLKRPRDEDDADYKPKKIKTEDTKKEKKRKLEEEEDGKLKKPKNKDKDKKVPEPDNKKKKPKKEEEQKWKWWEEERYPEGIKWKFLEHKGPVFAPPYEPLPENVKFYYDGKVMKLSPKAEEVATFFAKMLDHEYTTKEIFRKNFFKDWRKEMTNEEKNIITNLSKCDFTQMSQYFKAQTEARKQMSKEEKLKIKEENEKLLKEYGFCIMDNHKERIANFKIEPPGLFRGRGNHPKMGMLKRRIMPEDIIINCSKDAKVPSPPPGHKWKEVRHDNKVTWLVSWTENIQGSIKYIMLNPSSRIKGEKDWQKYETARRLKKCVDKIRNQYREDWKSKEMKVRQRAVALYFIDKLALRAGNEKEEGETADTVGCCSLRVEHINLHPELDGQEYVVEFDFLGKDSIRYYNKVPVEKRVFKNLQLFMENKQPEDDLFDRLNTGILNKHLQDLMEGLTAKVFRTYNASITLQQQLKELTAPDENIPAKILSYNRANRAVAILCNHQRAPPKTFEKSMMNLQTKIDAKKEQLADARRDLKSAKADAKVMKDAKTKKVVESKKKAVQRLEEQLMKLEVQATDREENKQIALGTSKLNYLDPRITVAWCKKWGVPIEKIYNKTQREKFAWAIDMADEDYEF
As to the kind of experiment: Topoisomerase I activity (in vitro): compound-induced, topoisomerase I-mediated single strand breaks in PM2 DNA. The data set is classed as biochemical. As to conditions: 30 minutes at 37° C., agarose gel densitometry, read-out: EC50 (median effective concentration for inducing topoisomerase I-mediated single strand breaks in DNA). As to the method:
Topoisomerase I Activity (In Vitro)
Topoisomerase I activity was measured as described below: The procedure for assaying compound-induced, topoisomerase I-mediated single strand breaks in DNA was essentially that described by Hsiang, et al., (J. Biol Chem. 1985, 260, 14873-14878). Samples dissolved in 100% DMSO as either 10 μM or 10 mg/ml solutions, unless otherwise stated, were diluted in Tris-EDTA buffer. Marine bacteriophage PM2 DNA (Boehringer Mannheim) was also diluted in Tris-EDTA buffer to a concentration of 0.02 μg/μl. Different dilutions of the compound being evaluated were mixed with diluted DNA and this mixture was added to 1000 unit (one unit of enzyme activity is defined as the amount capable of relaxing 100 ng of supercoiled DNA in approximately 30 minutes at 37° C.) aliquots of purified human topoisomerase I (Topogen) in 2× reaction buffer to start the reaction. The compound-DNA-enzyme mixture was incubated for 30 minutes at 37° C. before stopping the reaction with warm stop buffer containing sodium dodecyl sulfate and proteinase K (Sigma). These mixtures were allowed to incubate at 37° C. for another 10 minutes, at which time the mixtures were removed from the waterbath and extracted with a 24:1 mixture of chloroform/isoamyl alcohol. Following centrifugation, aliquots of the aqueous phases were placed in wells of a 0.9% agarose (SeaKem) gel in Tris-borate buffer containing 0.5 μg/ml of ethidium bromide and subjected to electrophoresis for 15 hours to separate the different topological isomers and nicked and broken DNAs. After destaining the gel in water, the ethidium bromide stained DNA reaction products were visualized by exposing the gel to UV irradiation. Negatives of the photographs of the irradiated gels were scanned with a densitometer and areas under the peaks were calculated in order to obtain percent single strand DNA break formation for each sample. A median effective concentration (EC50) was obtained for each compound by interpolation between points of the resulting dose-effect curve which defines the potency of the compound for its effect in inducing topoisomerase I-mediated single strand breaks in DNA.
The topoisomerase I activity for certain compounds of the present invention is shown below in Table I.

Like-named read-outs stand apart in the source and are kept apart here. A value given as a limit tells only on which side of the number the result lay.

As for `O=C1NC(=O)c2c1c1c3cc(F)c(F)cc3n3c1c1c2c2cc(F)c(F)cc2n1[C@@H]1OC(CO)[C@H]3C(O)C1O` (stereo partly drawn) [Example 13, 2,3,9,10-Tetrafluoro-12,13-(1,4-β-D-galactopyranosyl)-6,7,12,13-tetrahydro(5H)indolo[2,3-a]pyrrolo[3,4-c]carbazole-5,7-dione], in the data set on murine P388 cell line (Mus musculus), the IC50 stood at 2.8 µM. Moreover, the EC50 in data set [1] stood at 8.2 µM.
As to `O=C1NC(=O)c2c1c1c3cc(F)c(F)cc3n3c1c1c2c2cc(F)c(F)cc2n1[C@@]1(CO)O[C@@H]3[C@H](O)[C@@H](O)[C@@H]1O` [Example 22, 2,3,9,10-Tetrafluoro-12,13-(1,5-β-D-glucopyranosyl)-6,7,12,13-tetrahydro(5H)indolo[2,3-a]pyrrolo[3,4-c]carbazole-5,7-dione], the IC50 with murine P388 cell line (Mus musculus) worked out at 0.086 µM. Further, in data set [1], the EC50 turned out to be 0.32 µM.
Take `COC1C2Cn3c4c(Cl)cccc4c4c5c(c6c7cccc(Cl)c7n(c6c43)C(O2)C(O)C1O)C(=O)NC5=O` [Example 7, 1,11-Dichloro-12,13-[1,6-(4-O-methyl-β-D-glucopyranosyl)]-6,7,12,13-tetrahydro(5H)indolo[2,3-a]pyrrolo[3,4-c]carbazole-5,7-dione]: the IC50 in the data set with murine P388 cell line (Mus musculus) came to 0.46 µM. Moreover, the EC50 in data set [1] is greater than 100 µM.
For the compound `O=C1NC(=O)c2c1c1c3ccc(F)cc3n3c1c1c2c2ccc(F)cc2n1C1OC(C3)C(O)C(O)C1O` [Example 10, 2,10-Difluoro-12,13-[1,6-β-D-glucopyranosyl]-6,7,12,13-tetrahydro(5H)indolo-[2,3-a]pyrrolo[3,4-c]carbazole-5,7-dione], the melting point was greater than 300 °C. Moreover, in the data set with murine P388 cell line (Mus musculus), the IC50 is 0.13 µM. Besides, the EC50 in data set [1] came to 0.45 µM.
Consider `O=C1NC(=O)c2c1c1c3cc(F)ccc3n3c1c1c2c2cc(F)ccc2n1[C@@H]1O[C@H](CO)[C@@H](O)[C@H](O)[C@@H]13` [Example 28, 3,9-Difluoro-12,13-[1,2-β-D-glucopyranosyl]-6,7,12,13-tetrahydro(5H)-indolo-[2,3-a]pyrrolo[3,4-c]carbazole-5,7-dione], for which, in the data set with murine P388 cell line (Mus musculus), the IC50 amounted to 0.347 µM. Besides, in data set [1], the EC50 amounted to 0.12 µM.
As to “2,3,9,10-Tetrafluoro-12,13-[1,5-(6-deoxy-β-D-glucopyranosyl)]-6,7,12,13-tetrahydro(5H)indolo[2,3-a]pyrrolo[3,4-c]carbazole-5-one and 2,3,9,10-Tetrafluoro-12,13-[1,5-(6-deoxy-β-D-glucopyranosyl)]-6,7,12,13-tetrahydro(5H)-indolo[2,3-a]pyrrolo[3,4-c]carbazole-7-one [Example 23]”, the IC50 with murine P388 cell line stood at 0.24 µM. Besides, in data set [1], the EC50 is 2.1 µM.
Regarding `O=C1NC(=O)c2c1c1c3cc(F)ccc3n3c1c1c2c2cc(F)ccc2n1C1OC(C3)C(O)C(O)C1O` (centres unmarked) [Example 27], the IC50 with murine P388 cell line (Mus musculus) was found to be 0.0511 µM. Also, in data set [1], the EC50 was determined as 0.036 µM.
As to `O=C1NC(=O)c2c1c1c3cc(F)c(F)cc3n3c1c1c2c2cc(F)c(F)cc2n1C1OC(C3)C(O)CC1O` [Example 5, 2,3,9,10-Tetrafluoro-12,13-[1,6-(3-deoxy-β-D-glucopyranosyl)]-6,7,12,13-tetrahydro(5H)indolo[2,3-a]pyrrolo[3,4-c]carbazole-5,7-dione], the IC50 with murine P388 cell line (Mus musculus) is 0.023 µM. The EC50 in data set [1] was 0.68 µM.
`O=C1NC(=O)c2c1c1c3cc(F)c(F)cc3n3c1c1c2c2cc(F)c(F)cc2n1C1OC(CC(O)C1O)C3` [Example 4, 2,3,9,10-Tetrafluoro-12,13-[1,6-(4-deoxy-β-D-glucopyranosyl)]-6,7,12,13-tetrahydro(5H)indolo[2,3-a]pyrrolo[3,4-c]carbazole-5,7-dione]: the IC50 with murine P388 cell line (Mus musculus) amounted to 0.07 µM. Besides, the EC50 in data set [1] turned out to be 5.6 µM.
In the case of `O=C1NC(=O)c2c1c1c3cc(F)c(F)cc3n3c1c1c2c2cc(F)c(F)cc2n1C1OC(C3)C(O)C(O)C1O` [Example 3, 2,3,9,10-Tetrafluoro-12,13-(1,6-β-D-glucopyranosyl)-6,7,12,13-tetrahydro(5H)indolo[2,3-a]pyrrolo[3,4-c]carbazole-5,7-dione], the IC50 in the data set with murine P388 cell line (Mus musculus) was determined as 0.05 µM. Moreover, the EC50 in data set [1] came out at 0.35 µM.
`O=C1NC(=O)c2c1c1c3cc(F)ccc3n3c1c1c2c2cc(F)ccc2n1[C@@H]1O[C@H](CO)[C@H](O)[C@H](O)[C@@H]13` [Example 25, 3,9-Difluoro-12,13-[1,2-β-D-galactopyranosyl]-6,7,12,13-tetrahydro(5H)-indolo-[2,3-a]pyrrolo[3,4-c]carbazole-5,7-dione]: in the data set on murine P388 cell line (Mus musculus), the IC50 came out at 0.0142 µM. Further, the EC50 in data set [1] was 0.11 µM.
For the compound `C[C@]12O[C@H]([C@H](O)[C@@H](O)[C@@H]1O)n1c3cc(F)c(F)cc3c3c4c(c5c6cc(F)c(F)cc6n2c5c31)C(=O)NC4=O` [Example 21], the IC50 in the data set with murine P388 cell line (Mus musculus) came out at 0.14 µM. The EC50 in data set [1] was determined as 0.29 µM.
In the case of `O=C1NC(=O)c2c1c1c3cc(F)c(F)cc3n3c1c1c2c2cc(F)c(F)cc2n1C1OC(C3)C(O)C(F)C1O` [Example 6, 2,3,9,10-Tetrafluoro-12,13-[1,6-(3-deoxy-3-fluoro-β-D-glucopyranosyl)]-6,7,12,13-tetrahydro(5H)indolo[2,3-a]pyrrolo[3,4-c]carbazole-5,7-dione], the IC50 in the data set with murine P388 cell line (Mus musculus) came to 7.7 µM. In data set [1], the EC50 was greater than 100 µM.
Take `O=C1NC(=O)c2c1c1c3cc(F)c(F)cc3n3c1c1c2c2cc(F)c(F)cc2n1C1OC(C3)C(F)(F)C(O)C1O` [Example 9, 2,3,9,10-Tetrafluoro-12,13-[1,6-(4-deoxy-4,4-difluoro-β-D-glucopyranosyl)]-6,7,12,13-tetrahydro(5H)indolo[2,3-a]pyrrolo[3,4-c]carbazole-5,7-dione]: the IC50 in the data set on murine P388 cell line (Mus musculus) is 0.021 µM. Further, the EC50 in data set [1] is greater than 100 µM.
For `O=C1NC(=O)c2c1c1c3cc(F)ccc3n3c1c1c2c2cc(F)ccc2n1C1OC(C3)C(F)C(O)C1O` [Example 26, 3,9-Difluoro-12,13-[1,6-(4-deoxy-4-fluoro-β-D-glucopyranosyl)]-6,7,12,13-tetrahydro(5H)indolo[2,3-a]pyrrolo[3,4-c]carbazole-5,7-dione], in that order: 0.003 µM and 0.028 µM.
As for `O=C1NC(=O)c2c1c1c3cc(F)c(F)cc3n3c1c1c2c2cc(F)c(F)cc2n1[C@@H]1OC(CF)[C@H]3C(O)C1O` (stereo partly drawn) [Example 16, 2,3,9,10-Tetrafluoro-12,13-[1,4-(6-deoxy-6-fluoro-β-D-galactopyranosyl)]-6,7,12,13-tetrahydro(5H)indolo[2,3-a]pyrrolo[3,4-c]carbazole-5,7-dione], the IC50 in the data set with murine P388 cell line (Mus musculus) amounted to 3.3 µM. In data set [1], the EC50 stood at 2.9 µM.
As to `O=C1NC(=O)c2c1c1c3cc(F)c(F)cc3n3c1c1c2c2cc(F)c(F)cc2n1C1OC(C3)C(F)C(O)C1O` [Example 8, 2,3,9,10-Tetrafluoro-12,13-[1,6-(4-deoxy-4-fluoro-β-D-glucopyranosyl)]-6,7,12,13-tetrahydro(5H)indolo[2,3-a]pyrrolo[3,4-c]carbazole-5,7-dione], in the data set on murine P388 cell line (Mus musculus), the IC50 amounted to 0.026 µM. Further, the EC50 in data set [1] came out at 0.62 µM.
